Data as given in ChEMBL document CHEMBL1201862, “PubChem BioAssay data set” (2004).
Values belong to the molecule of their own block, whether it stands above or below them. Active and inactive are the calls of the source.

Key:
Assay type in all cases: functional
[1] = biological target: Megakaryocyte-associated tyrosine-protein kinase (Homo sapiens, UniProt P42679);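 further: affinity measured as one member of a kinase panel (Navigating the Kinome) against MATK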
[2] = biological target: Tyrosine-protein kinase JAK2 (Homo sapiens, UniProt O60674);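 further: JAK2 tested as one member of a kinase panel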
Tyrosine-protein kinase JAK2, sequence (O60674 whole entry, canonical isoform): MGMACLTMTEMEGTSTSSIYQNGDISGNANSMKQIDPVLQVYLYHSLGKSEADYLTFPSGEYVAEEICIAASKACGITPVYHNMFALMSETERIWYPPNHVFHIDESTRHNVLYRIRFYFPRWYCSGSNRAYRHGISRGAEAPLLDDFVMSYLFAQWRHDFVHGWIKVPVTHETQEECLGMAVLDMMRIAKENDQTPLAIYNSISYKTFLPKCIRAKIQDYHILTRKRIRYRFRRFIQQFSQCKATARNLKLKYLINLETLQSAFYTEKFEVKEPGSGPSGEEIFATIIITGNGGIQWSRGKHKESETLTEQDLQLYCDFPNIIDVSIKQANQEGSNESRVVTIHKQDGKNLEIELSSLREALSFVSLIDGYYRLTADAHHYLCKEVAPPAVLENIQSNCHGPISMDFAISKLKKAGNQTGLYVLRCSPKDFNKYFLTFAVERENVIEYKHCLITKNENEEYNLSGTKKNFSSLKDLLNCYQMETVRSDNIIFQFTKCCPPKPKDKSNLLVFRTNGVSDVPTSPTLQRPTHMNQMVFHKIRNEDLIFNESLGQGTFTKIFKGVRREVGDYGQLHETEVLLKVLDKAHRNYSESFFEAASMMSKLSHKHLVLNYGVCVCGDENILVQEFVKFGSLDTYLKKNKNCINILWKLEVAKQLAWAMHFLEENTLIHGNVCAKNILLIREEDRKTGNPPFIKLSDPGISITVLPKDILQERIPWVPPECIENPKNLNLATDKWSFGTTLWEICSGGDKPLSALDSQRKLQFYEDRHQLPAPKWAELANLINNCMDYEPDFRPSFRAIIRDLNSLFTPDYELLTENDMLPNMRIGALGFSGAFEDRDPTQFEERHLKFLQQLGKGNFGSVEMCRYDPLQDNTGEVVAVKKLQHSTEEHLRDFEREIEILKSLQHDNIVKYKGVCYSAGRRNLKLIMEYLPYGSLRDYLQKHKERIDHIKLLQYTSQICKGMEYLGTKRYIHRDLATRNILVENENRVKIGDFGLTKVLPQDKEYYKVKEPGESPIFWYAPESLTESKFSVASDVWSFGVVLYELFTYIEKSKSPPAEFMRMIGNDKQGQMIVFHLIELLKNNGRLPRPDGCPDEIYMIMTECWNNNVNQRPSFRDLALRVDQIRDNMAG

[3] = biological target: Phosphorylase b kinase gamma catalytic chain, liver/testis isoform (Homo sapiens, UniProt P15735);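 further: PHKG2 measured as one member of a kinome-wide kinase panel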
[4] = biological target: Protein kinase C delta type (Homo sapiens, UniProt Q05655)
Protein kinase C delta type, sequence (Q05655 whole entry): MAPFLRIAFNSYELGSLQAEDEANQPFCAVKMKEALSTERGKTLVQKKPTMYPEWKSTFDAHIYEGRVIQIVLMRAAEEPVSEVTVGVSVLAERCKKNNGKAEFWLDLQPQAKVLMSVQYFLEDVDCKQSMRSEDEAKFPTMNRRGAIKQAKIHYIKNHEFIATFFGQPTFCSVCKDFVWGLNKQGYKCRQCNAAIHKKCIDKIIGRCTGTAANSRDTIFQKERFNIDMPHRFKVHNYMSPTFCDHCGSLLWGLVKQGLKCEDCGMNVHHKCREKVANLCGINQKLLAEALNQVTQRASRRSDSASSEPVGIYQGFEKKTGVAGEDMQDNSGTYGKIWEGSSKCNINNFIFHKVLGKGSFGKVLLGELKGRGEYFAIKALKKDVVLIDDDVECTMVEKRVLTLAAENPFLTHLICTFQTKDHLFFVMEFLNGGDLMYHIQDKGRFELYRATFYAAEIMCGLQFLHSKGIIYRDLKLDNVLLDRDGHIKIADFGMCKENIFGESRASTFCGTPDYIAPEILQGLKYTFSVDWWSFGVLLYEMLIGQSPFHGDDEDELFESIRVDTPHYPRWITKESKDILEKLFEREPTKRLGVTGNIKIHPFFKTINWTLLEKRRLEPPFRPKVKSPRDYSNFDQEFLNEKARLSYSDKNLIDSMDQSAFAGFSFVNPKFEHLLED

[5] = biological target: Proto-oncogene tyrosine-protein kinase receptor Ret (Homo sapiens, UniProt P07949);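 further: measured within a kinome-wide profiling panel, RET as the panel member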
[6] = biological target: Ribosomal protein S6 kinase beta-1 (Homo sapiens, UniProt P23443);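 further: measured as one member of a kinome-wide profiling panel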
[7] = biological target: Calcium/calmodulin-dependent protein kinase type II subunit gamma (Homo sapiens, UniProt Q13555)
Calcium/calmodulin-dependent protein kinase type II subunit gamma, sequence (Q13555 whole entry): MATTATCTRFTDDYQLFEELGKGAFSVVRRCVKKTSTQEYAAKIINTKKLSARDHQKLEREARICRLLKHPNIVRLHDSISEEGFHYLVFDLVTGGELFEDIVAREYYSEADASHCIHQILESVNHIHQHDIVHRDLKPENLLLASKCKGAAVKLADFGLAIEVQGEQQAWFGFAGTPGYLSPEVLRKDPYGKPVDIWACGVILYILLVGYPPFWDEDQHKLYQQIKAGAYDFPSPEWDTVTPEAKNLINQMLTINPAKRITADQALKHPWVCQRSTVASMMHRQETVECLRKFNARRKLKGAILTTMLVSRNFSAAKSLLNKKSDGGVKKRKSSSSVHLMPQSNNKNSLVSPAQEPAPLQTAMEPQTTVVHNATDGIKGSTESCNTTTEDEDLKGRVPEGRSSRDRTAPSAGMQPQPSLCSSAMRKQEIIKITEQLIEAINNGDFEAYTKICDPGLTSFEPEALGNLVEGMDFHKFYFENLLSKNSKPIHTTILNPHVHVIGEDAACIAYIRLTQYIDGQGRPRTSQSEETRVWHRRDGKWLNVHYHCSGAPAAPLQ

SRSF protein kinase 1 = SRSF protein kinase 1 (Homo sapiens, UniProt Q96SB4);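 further: measured as one member of a kinome-wide kinase profiling panel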
SRSF protein kinase 1, sequence (Q96SB4 whole entry): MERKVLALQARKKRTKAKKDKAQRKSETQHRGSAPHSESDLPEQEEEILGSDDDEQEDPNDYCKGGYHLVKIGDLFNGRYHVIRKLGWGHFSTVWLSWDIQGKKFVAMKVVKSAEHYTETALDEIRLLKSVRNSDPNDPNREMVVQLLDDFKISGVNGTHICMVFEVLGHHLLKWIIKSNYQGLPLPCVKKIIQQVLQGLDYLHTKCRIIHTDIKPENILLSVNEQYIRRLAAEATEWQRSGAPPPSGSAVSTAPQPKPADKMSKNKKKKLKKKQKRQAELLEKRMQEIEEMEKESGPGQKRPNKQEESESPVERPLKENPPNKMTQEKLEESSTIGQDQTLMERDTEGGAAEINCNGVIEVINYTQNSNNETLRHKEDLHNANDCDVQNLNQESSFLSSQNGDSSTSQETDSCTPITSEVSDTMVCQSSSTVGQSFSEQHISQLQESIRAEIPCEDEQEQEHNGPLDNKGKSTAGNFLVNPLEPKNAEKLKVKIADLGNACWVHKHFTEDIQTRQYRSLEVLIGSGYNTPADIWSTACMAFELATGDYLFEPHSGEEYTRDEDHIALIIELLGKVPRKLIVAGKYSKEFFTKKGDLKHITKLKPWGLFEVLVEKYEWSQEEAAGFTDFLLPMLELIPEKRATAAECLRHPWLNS

Aurora kinase A = Aurora kinase A (Homo sapiens, UniProt O14965);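 further: value from the Navigating the Kinome kinase panel profiling, panel entry STK6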
[8] = biological target: Cell division cycle 7-related protein kinase (Homo sapiens, UniProt O00311);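 further: value obtained from a kinome-wide kinase panel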
Cell division cycle 7-related protein kinase, sequence (O00311 whole entry): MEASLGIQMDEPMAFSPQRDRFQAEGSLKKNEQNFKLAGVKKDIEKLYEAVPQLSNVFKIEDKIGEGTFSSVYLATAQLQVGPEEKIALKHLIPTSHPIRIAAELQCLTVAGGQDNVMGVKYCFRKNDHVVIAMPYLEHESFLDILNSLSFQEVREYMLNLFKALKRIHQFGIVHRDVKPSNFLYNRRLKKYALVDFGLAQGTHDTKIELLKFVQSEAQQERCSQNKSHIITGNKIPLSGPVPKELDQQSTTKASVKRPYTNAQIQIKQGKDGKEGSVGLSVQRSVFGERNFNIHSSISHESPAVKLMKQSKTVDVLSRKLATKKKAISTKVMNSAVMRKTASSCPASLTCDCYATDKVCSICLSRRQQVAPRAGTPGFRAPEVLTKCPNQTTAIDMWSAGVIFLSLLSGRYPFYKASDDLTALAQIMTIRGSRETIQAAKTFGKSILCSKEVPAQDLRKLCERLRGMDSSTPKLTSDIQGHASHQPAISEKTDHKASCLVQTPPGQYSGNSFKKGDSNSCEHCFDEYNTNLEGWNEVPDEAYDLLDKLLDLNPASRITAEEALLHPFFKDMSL

[9] = biological target: Mast/stem cell growth factor receptor Kit (Homo sapiens, UniProt P10721);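 further: KIT entry within a kinase panel assay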
[10] = biological target: Casein kinase II subunit alpha (Homo sapiens, UniProt P68400)
[11] = biological target: Proto-oncogene tyrosine-protein kinase ROS (Homo sapiens, UniProt P08922);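 further: ROS1 tested as one member of a kinome-wide kinase panel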
[12] = biological target: Serine/threonine-protein kinase pim-3 (Homo sapiens, UniProt Q86V86);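 further: value obtained as one member of a broad kinase panel profiling effort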
[13] = biological target: Tyrosine-protein kinase Srms (Homo sapiens, UniProt Q9H3Y6);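 further: SRMS measured as one member of a kinome-wide kinase profiling panel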
[14] = biological target: Hepatocyte growth factor receptor (Homo sapiens, UniProt P08581);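 further: kinase panel profiling across the kinome, with MET as the panel member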
[15] = biological target: Serine/threonine-protein kinase Chk1 (Homo sapiens, UniProt O14757);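 further: measured as one member of a kinome-wide kinase profiling panel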
[16] = biological target: Vascular endothelial growth factor receptor 2 (Homo sapiens, UniProt P35968)
[17] = biological target: Mitogen-activated protein kinase 1 (Homo sapiens, UniProt P28482)
Misshapen-like kinase 1 = Misshapen-like kinase 1 (Homo sapiens, UniProt Q8N4C8);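 further: kinome panel screen with MINK as the panel member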
Misshapen-like kinase 1, sequence (Q8N4C8 whole entry): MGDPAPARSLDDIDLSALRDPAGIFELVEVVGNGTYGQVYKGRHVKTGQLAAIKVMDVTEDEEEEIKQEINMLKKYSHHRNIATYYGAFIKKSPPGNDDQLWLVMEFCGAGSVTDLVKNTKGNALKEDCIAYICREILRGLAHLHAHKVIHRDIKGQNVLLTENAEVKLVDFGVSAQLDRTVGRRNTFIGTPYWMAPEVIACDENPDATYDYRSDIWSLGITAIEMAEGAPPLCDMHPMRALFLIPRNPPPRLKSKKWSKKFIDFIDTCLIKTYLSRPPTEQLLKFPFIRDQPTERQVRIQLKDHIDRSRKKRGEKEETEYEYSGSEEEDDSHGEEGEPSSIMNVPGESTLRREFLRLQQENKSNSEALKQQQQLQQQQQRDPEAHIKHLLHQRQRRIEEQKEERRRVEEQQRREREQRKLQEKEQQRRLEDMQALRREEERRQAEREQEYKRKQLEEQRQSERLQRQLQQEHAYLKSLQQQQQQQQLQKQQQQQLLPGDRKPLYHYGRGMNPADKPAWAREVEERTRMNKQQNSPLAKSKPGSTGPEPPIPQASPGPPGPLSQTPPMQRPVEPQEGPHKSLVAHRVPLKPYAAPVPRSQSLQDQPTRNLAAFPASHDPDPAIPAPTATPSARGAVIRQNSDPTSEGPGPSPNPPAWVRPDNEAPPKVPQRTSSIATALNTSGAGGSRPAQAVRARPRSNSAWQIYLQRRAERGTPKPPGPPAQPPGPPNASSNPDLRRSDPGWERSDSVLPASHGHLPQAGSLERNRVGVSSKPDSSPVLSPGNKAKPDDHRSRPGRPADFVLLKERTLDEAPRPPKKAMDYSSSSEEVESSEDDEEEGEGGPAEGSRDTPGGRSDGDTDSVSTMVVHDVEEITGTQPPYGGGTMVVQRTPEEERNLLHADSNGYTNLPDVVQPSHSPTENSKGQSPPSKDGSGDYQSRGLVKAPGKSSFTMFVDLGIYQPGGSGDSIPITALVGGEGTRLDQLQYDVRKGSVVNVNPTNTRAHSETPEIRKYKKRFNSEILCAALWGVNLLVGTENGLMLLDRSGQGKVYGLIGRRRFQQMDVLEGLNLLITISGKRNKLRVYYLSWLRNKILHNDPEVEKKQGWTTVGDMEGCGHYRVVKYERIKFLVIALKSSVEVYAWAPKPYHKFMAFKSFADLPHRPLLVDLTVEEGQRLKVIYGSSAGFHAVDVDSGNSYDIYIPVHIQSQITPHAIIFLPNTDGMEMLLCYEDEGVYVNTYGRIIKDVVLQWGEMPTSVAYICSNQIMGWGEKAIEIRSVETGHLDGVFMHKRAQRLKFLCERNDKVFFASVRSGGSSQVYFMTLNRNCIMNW

[18] = biological target: Serine/threonine-protein kinase Nek4 (Homo sapiens, UniProt P51957)
[19] = biological target: T1, cAMP-dependent protein kinase catalytic subunit PRKX (Homo sapiens, UniProt P51817)
T1 sequence (P51817 whole entry): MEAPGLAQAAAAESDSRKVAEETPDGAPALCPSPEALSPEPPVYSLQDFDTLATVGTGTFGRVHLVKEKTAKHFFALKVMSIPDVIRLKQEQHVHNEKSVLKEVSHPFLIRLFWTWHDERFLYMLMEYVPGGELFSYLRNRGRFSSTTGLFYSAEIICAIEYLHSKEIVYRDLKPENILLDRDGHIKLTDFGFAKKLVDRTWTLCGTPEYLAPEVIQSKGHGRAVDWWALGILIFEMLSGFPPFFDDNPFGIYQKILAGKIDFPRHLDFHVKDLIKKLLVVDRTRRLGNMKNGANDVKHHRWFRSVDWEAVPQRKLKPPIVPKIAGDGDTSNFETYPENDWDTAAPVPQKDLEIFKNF

[20] = biological target: Maternal embryonic leucine zipper kinase (Homo sapiens, UniProt Q14680)
[21] = biological target: Tyrosine-protein kinase Fer (Homo sapiens, UniProt P16591);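 further: FER tested as one member of a kinome panel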
[22] = biological target: Serine/threonine-protein kinase DCLK1 (Homo sapiens, UniProt O15075);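 further: affinity for DCLK1 (listed as DCAMKL1) measured as one member of a kinome-wide kinase profiling panel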
[23] = biological target: Glycogen synthase kinase-3 beta (Homo sapiens, UniProt P49841);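 further: value comes from a broad kinome profiling panel, with GSK3B as the panel member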
[24] = biological target: Cyclin-dependent kinase 9 (Homo sapiens, UniProt P50750);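 further: value from the CDK9 entry of a kinome-spanning kinase panel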
[25] = biological target: BDNF/NT-3 growth factors receptor (Homo sapiens, UniProt Q16620);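 further: NTRK2 measured as one member of a broad kinome-wide kinase profiling panel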
[26] = biological target: Mitogen-activated protein kinase kinase kinase kinase 4 (Homo sapiens, UniProt O95819)
[27] = biological target: Serine/threonine-protein kinase MRCK alpha (Homo sapiens, UniProt Q5VT25)
[28] = biological target: Macrophage-stimulating protein receptor (Homo sapiens, UniProt Q04912); experiment: Navigating the Kinome. Panel member name: MST1R
[29] = biological target: Dual specificity mitogen-activated protein kinase kinase 2 (Homo sapiens, UniProt P36507); experiment: Navigating the Kinome. Panel member name: MAP2K2
[30] = biological target: Calcium/calmodulin-dependent protein kinase type II subunit alpha (Homo sapiens, UniProt Q9UQM7); experiment: Navigating the Kinome. Panel member name: CAMK2A
[31] = biological target: Serine/threonine-protein kinase 3 (Homo sapiens, UniProt Q13188);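 further: measured as one member of a kinome-wide kinase panel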
[32] = biological target: Serine/threonine-protein kinase D3 (Homo sapiens, UniProt O94806);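 further: determined within a kinase panel screen, with PRKCN as the panel member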
[33] = biological target: Rho-associated protein kinase 2 (Homo sapiens, UniProt O75116)
[34] = biological target: Tyrosine-protein kinase Lyn (Homo sapiens, UniProt P07948);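 further: lyn as one member of a kinase panel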
[35] = biological target: Calcium/calmodulin-dependent protein kinase type II subunit beta (Homo sapiens, UniProt Q13554)
[36] = biological target: Cyclin-dependent kinase 19 (Homo sapiens, UniProt Q9BWU1); experiment: Navigating the Kinome. Panel member name: CDC2L6

Ki [1]: > 2 µM (inactive)
Ki [2]: 20 nM (active)
pKi [2]: 7.7
Ki [3]: > 5.01 µM (inactive)
Ki [4]: 158 nM (active)
pKi [4]: 6.8
Ki [5]: > 1.26 µM (inactive)
Ki [6]: > 6.31 µM (inactive)
Ki [7]: 6.31 µM (active)
pKi [7]: 5.2
Ki (SRSF protein kinase 1): 1.26 µM (active)
pKi (SRSF protein kinase 1): 5.9
Ki (Aurora kinase A): > 1.58 µM (inactive)
Ki [8]: 0.2 nM (active)
pKi [8]: 9.7
Ki [9]: > 1.26 µM (inactive)
Ki [10]: 0.2 µM (active)
pKi [10]: 6.7
Ki [11]: > 2 µM (inactive)
Ki [12]: 398 nM (active)
pKi [12]: 6.4
Ki [13]: > 1.58 µM (inactive)
Ki [14]: > 2.51 µM (inactive)
Ki [15]: > 7.94 µM (inactive)
Ki [16]: 794 nM (active)
pKi [16]: 6.1
Ki [17]: 31.6 nM (active)
pKi [17]: 7.5
Ki (Misshapen-like kinase 1): 1.58 µM (active)
pKi (Misshapen-like kinase 1): 5.8
Ki [18]: 50.1 nM (active)
pKi [18]: 7.3
Ki [19]: 1 µM (active)
pKi [19]: 6
Ki [20]: > 1.58 µM (inactive)
Ki [21]: > 1.58 µM (inactive)
Ki [22]: > 10 µM (inactive)
Ki [23]: 6.31 nM (active)
pKi [23]: 8.2
Ki [24]: 3.98 nM (active)
pKi [24]: 8.4
Ki [25]: > 3.98 µM (inactive)
Ki [26]: 1.58 µM (active)
pKi [26]: 5.8
Ki [27]: 1.26 µM (active)
pKi [27]: 5.9
Ki [28]: > 3.98 µM (inactive)
Ki [29]: > 3.98 µM (inactive)
Ki [30]: > 7.94 µM (inactive)
Ki [31]: > 3.16 µM (inactive)
SMILES: NC(=O)c1cc(-c2ccnc(N)n2)[nH]c1-c1ccc(Cl)cc1Cl

Ki [1]: > 2 µM (inactive)
Ki [2]: 316 nM (active)
Ki [3]: 0.0126 µM (active)
Ki [4]: 20 nM (active)
Ki [5]: 0.0501 µM (active)
Ki [7]: 0.0251 µM (active)
Ki [32]: 6.31 nM (active)
Ki [33]: 12.6 nM (active)
Ki (SRSF protein kinase 1): 0.0794 µM (active)
Ki (Aurora kinase A): > 1.58 µM (inactive)
Ki [8]: 251 nM (active)
Ki [9]: 0.126 µM (active)
Ki [10]: > 6.31 µM (inactive)
Ki [34]: 316 nM (active)
Ki [11]: 1 µM (active)
Ki [13]: > 1.58 µM (inactive)
Ki [14]: > 3.16 µM (inactive)
Ki [15]: 0.398 µM (active)
Ki [35]: 251 nM (active)
Ki [16]: 398 nM (active)
Ki [17]: 398 nM (active)
Ki (Misshapen-like kinase 1): 0.0398 µM (active)
Ki [18]: 1580 nM (active)
Ki [19]: 0.00794 µM (active)
Ki [20]: 0.00501 µM (active)
Ki [36]: > 100 µM (inactive)
Ki [21]: 0.398 µM (active)
Ki [22]: 1 µM (active)
Ki [23]: 63.1 nM (active)
Ki [25]: 0.316 µM (active)
Ki [27]: 0.316 µM (active)
Ki [31]: 0.0126 µM (active)
SMILES: NC(COc1cncc(-c2ccc3c(c2)C(=Cc2ccco2)C(=O)N3)c1)Cc1c[nH]c2ccccc12 (stereo not given)

SMILES: Cc1ccc(-n2nc(C(C)(C)C)cc2NC(=O)Nc2ccc(OCCN3CCOCC3)c3ccccc23)cc1 [DORAMAPIMOD]
Ki [32]: > 3980 nM (inactive)
Ki [29]: > 3.98 µM (inactive)
Ki [30]: > 3.98 µM (inactive)
